Experimental data as given in publication PMC9841585 (ACS Medicinal Chemistry Letters, 2022).

Test system: CHO cells
Assay: Biotium XTT cell viability kit
Type: cell-based, Chinese hamster
Conditions: 24 hours, medium with 5% serum

For Cc1nc(N2CCN(C(=O)c3ccco3)CC2)c2c3c(sc2n1)CC(C)(C)CC3 [Compound 24], the “cytotoxicity (no cytotoxicity up to)” value was greater than 10 µM.
